Experimental data taken from patent publication US20260263473A1 (priority 2023, published 2026).

Experiment: Blood levels of the actives after the three-compartment transdermal patch in a COVID patient
Format: in vivo, human
Details: for time at which blood levels rose to a peak: transdermal patch (48 mg ivermectin, 300 mg doxycycline, 50 mg zinc chelate; gelling agent and water), adhered to left side of chest for 3 days
Experimental: A patient with diabetes and hypertension had acquired COVID as proven by PCR. […] They were treated with a transdermal patch containing higher dose of active antiviral drugs including 48 mg of ivermectin, 300 mg of doxycycline, and 50 mg of zinc chelate. The transdermal patch had three separate compartments, each compartment containing one of ivermectin, doxycycline and zinc chelate. Each active ingredient was formulated with a gelling agent and water. The patch remained adhered to the left side of the chest for 3 days. Blood levels of each of the ivermectin, doxycycline and zinc chelate rose to a peak at 10 hrs, The patient's cough continued but slowly resolved and they were not breathless. […] The patient oxygen saturation improved within 2 days with oximetry rising to 96%.

[1] = orally treated patients (comparison)
[2] = transdermal patch, adhered to chest for 3 days, one patient

Compound | persistence of blood levels (area under the curve) [1] [h] | time at which blood levels rose to a peak (one patient) [h] | area under the curve compared with single oral medications [2] | persistence of blood levels (area under the curve) [2] [h]
ivermectin | 48 | 10 | greater than that of single oral medications | 140
C[C@H]1c2cccc(O)c2C(=O)C2=C(O)[C@]3(O)C(=O)C(C(N)=O)=C(O)[C@@H](N(C)C)[C@@H]3[C@@H](O)[C@@H]21 [doxycycline] | 48 | 10 | greater than that of single oral medications | 140
